Key:
[1] = Solubility of bilastine in water; format: physicochemical; settings: pH-dependent
[2] = Solubility of bilastine and mometasone furoate in formulations with HPBCD; format: physicochemical; settings: HPBCD 75 mg/mL (7.5 wt %); FIG. 1B
Experimental: Six different formulations (with mometasone furoate monohydrate and the rest of excipients as defined in example 7) were prepared (see table below). The six formulations had amounts of HPBCD from 12.5 to 100 mg/mL. Then, in each of them an excessive amount of bilastine was added and the maximum solubility was tested. Furthermore, the percentage of the mometasone furoate dissolved was also tested. All the measurements were conducted at time 0.

## CCOCCn1c(C2CCN(CCc3ccc(C(C)(C)C(=O)O)cc3)CC2)nc2ccccc21 [Bilastine, 2-[4-(2-{4-[1-(2-ethoxyethyl)-1H-benzimidazol-2-yl]-1-piperidinyl}ethyl)phenyl]-2-methylpropanoic acid]
[1]
  solubility in water: only slightly soluble

## C[C@@H]1C[C@H]2[C@@H]3CCC4=CC(=O)C=C[C@]4(C)[C@@]3(Cl)[C@@H](O)C[C@]2(C)[C@@]1(OC(=O)c1ccco1)C(=O)CCl.O [Mometasone Furoate monohydrate, Mometasone furoate monohydrate]
[2]
  solubility of mometasone furoate: around 4 mg/mL
